Reference: patent publication US8778951B2, “Heteroaryl compounds and their uses” (Novartis AG, priority 2009, dated 2014)

Biological target: Cdk9/cyclinT1 (Homo sapiens (Human), UniProt P50750)
Assay: Cdk9/CyclinT1 IMAP Protocol (fluorescence polarization kinase assay)
Format: biochemical
Conditions: Table 2; generated using one of the two Cdk9/cyclinT1 assays (IMAP or Alpha Screen), not specified which; unit inferred
Summary of the method: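 Reaction used 4 nM Cdk9/cyclinT1, 100 nM 5TAMRA-cdk7tide peptide and 6 uM ATP in 100 mM Tris pH 7.2 with MgCl2, 0.01% Tween-20, 1 mM DTT and 2.5% DMSO, running 4.5 h. Phosphopeptide was captured by IMAP binding reagent for >1 h, then read by fluorescence polarization (ex 531/em 595 nm).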

Cdk9/cyclinT1, sequence (P50750 whole entry): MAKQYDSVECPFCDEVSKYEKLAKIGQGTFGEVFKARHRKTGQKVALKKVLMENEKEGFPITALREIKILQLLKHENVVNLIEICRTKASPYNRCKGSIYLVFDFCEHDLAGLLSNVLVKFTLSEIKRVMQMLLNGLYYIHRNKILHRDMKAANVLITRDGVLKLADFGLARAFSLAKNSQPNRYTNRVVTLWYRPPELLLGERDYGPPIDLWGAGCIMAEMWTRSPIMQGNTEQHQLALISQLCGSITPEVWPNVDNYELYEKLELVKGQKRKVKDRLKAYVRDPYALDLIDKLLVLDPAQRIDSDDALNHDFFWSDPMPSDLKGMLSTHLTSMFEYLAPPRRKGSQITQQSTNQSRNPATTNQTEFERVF
Cdk9/cyclinT1, sequence (O60563 whole entry partner): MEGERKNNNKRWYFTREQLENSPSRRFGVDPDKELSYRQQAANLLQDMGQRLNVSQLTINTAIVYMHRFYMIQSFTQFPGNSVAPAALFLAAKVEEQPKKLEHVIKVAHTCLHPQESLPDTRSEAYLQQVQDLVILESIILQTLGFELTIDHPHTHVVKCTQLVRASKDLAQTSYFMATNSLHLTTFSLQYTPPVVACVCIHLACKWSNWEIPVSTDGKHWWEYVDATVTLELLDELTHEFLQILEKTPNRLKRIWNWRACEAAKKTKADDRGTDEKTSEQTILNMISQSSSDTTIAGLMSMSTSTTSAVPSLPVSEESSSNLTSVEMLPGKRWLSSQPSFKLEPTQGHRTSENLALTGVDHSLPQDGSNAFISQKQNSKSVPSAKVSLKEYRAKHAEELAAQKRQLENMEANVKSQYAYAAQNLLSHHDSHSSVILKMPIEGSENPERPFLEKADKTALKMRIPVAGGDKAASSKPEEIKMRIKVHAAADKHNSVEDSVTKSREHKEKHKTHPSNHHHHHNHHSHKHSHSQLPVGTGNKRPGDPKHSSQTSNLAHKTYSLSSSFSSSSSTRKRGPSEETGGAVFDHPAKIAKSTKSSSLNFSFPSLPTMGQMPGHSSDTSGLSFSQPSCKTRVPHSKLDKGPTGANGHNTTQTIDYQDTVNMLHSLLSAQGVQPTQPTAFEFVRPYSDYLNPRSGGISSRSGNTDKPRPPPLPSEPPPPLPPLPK

SMILES | IC50
N[C@H]1CC[C@H](Nc2cc(-c3cccc(NCc4cccc(F)c4)n3)c(F)cn2)CC1 [Compound 197] | 7.94 nM
CN(C)[C@H]1CC[C@H](Nc2cc(-c3cccc(NCc4cc(F)cc(F)c4)n3)c(Cl)cn2)CC1 [Compound 198] | 7.94 nM
OCCCN[C@H]1CC[C@H](Nc2cc(-c3cccc(NCc4cccc(F)c4)n3)c(Cl)cn2)CC1 [Compound 200] | 7.94 nM
N[C@H]1CC[C@H](Nc2cc(-c3cncc(NCC4CCOCC4)n3)c(Cl)cn2)CC1 [Compound 203, trans-N1-(5-chloro-4-(6-((tetrahydro-2H-pyran-4-yl)methyl)aminopyrazin-2-yl)pyridin-2-yl)cyclohexane-1,4-diamine] | 7.94 nM
CN(C)C(=O)[C@H]1CC[C@@H](Nc2cc(-c3cccc(NCc4cccc(F)c4)n3)c(Cl)cn2)C1 [Compound 205, (1S,3R)-3-(5′-chloro-6-(3-fluorobenzylamino)-2,4′-bipyridin-2′-yl-amino)-N,N-dimethylcyclopentanecarboxamide] | 17.5 nM
O[C@H]1CC[C@H](Nc2cc(-c3cncc(NCC4CCOCC4)n3)c(Cl)cn2)CC1 [Compound 208, trans-4-(5-chloro-4-(6-((tetrahydro-2H-pyran-4-yl)methyl)aminopyrazin-2-yl)pyridin-2-yl-amino)cyclohexanol] | 7.94 nM
CN1CCC(CNc2cc(-c3cncc(NCC4CCOCC4)n3)c(Cl)cn2)CC1 [Compound 209] | 183 nM
OCCNc1cc(-c2cncc(NCC3CCOCC3)n2)c(Cl)cn1 [Compound 210] | 86 nM
Cc1cnc(N[C@H]2CC[C@H](N)CC2)cc1-c1cccc(NCc2cccc(F)c2)n1 [Compound 211, N2′-(trans-4-aminocyclohexyl)-N6-(3-fluorobenzyl)-5′-methyl-2,4′-bipyridine-2′,6-diamine] | 21 nM
N[C@H]1CC[C@H](Nc2cc(-c3cccc(N[C@@H]4CC45CCOCC5)n3)c(Cl)cn2)CC1 [Compound 212] | 54.6 nM
O=C([C@H]1CC[C@@H](Nc2cc(-c3cccc(NCc4cccc(F)c4)n3)c(Cl)cn2)C1)N1CCCC1 [Compound 213] | 14.2 nM
CC(=O)N1CCC[C@H](CNc2cccc(-c3cc(N[C@H]4CC[C@H](N)CC4)ncc3Cl)n2)C1 [Compound 215, 1-((R)-3-((2′-(trans-4-aminocyclohexylamino)-5′-chloro-2,4′-bipyridin-6-yl-amino)methyl)piperidin-1-yl)ethanone] | 65.5 nM
CC(=O)N1CCC[C@H](CNc2cccc(-c3ccnc(N[C@H]4CC[C@H](N)CC4)c3)n2)C1 [Compound 216, 1-((R)-3-((2′-(trans-4-aminocyclohexylamino)-2,4′-bipyridin-6-yl-amino)methyl)piperidin-1-yl)ethanone] | 138 nM
CC(=O)N1CCC[C@@H](CNc2cccc(-c3cc(N[C@H]4CC[C@H](N)CC4)ncc3Cl)n2)C1 [Compound 217] | 37.3 nM
CC(=O)N1CCC[C@@H](CNc2cccc(-c3ccnc(N[C@H]4CC[C@H](N)CC4)c3)n2)C1 [Compound 218] | 128 nM
N[C@H]1CC[C@H](Nc2cc(-c3cnc(Cl)c(NCC4CCOCC4)n3)c(Cl)cn2)CC1 [Compound 221] | 7.95 nM
O[C@H]1CC[C@H](Nc2cc(-c3cnc(Cl)c(NCC4CCOCC4)n3)c(Cl)cn2)CC1 [Compound 222, trans-4-(5-chloro-4-(5-chloro-6-((tetrahydro-2H-pyran-4-yl)methyl)aminopyrazin-2-yl)pyridin-2-yl-amino)cyclohexanol] | 7.95 nM
N[C@H]1CC[C@H](Nc2cc(-c3nc(NCC4CCOCC4)cnc3Cl)c(Cl)cn2)CC1 [Compound 223, trans-N1-(5-chloro-4-(3-chloro-6-((tetrahydro-2H-pyran-4-yl)methyl)aminopyrazin-2-yl)pyridin-2-yl)cyclohexane-1,4-diamine] | 7.95 nM
NC(=O)c1ncc(-c2cc(N[C@H]3CC[C@H](N)CC3)ncc2Cl)nc1NCC1CCOCC1 [Compound 224, 5-(2-(trans-4-aminocyclohexylamino)-5-chloropyridin-4-yl)-3-((tetrahydro-2H-pyran-4-yl)methyl)aminopyrazine-2-carboxamide] | 91.9 nM
Clc1cnc(N[C@H]2CC[C@H](N3CCCC3)CC2)cc1-c1cnc(Cl)c(NCC2CCOCC2)n1 [Compound 225, 3-chloro-6-(5-chloro-2-(trans-4-(pyrrolidin-1-yl)cyclohexylamino)pyridin-4-yl)-N-((tetrahydro-2H-pyran-4-yl)methyl)pyrazin-2-amine] | 7.95 nM
Nc1ncc(-c2cc(N[C@H]3CC[C@H](N)CC3)ncc2Cl)nc1NCC1CCOCC1 [Compound 226, 6-(2-(trans-4-aminocyclohexylamino)-5-chloropyridin-4-yl)-N2-((tetrahydro-2H-pyran-4-yl)methyl)pyrazine-2,3-diamine] | 7.95 nM
Nc1ncc(-c2cc(N[C@H]3CC[C@H](O)CC3)ncc2Cl)nc1NCC1CCOCC1 [Compound 227] | 25.9 nM

SMILES | IC50
N[C@H]1CC[C@H](Nc2cc(-c3cncc(NCC4CCCOC4)n3)c(Cl)cn2)CC1 (some centres unmarked) [Compound 228] | 7.95 nM
O[C@H]1CC[C@H](Nc2cc(-c3cncc(NCC4CCCOC4)n3)c(Cl)cn2)CC1 (some centres unmarked) [Compound 229] | 7.95 nM
Cc1ncc(-c2cc(N[C@H]3CC[C@H](N)CC3)ncc2Cl)nc1NCC1CCOCC1 [Compound 231, trans-N1-(5-chloro-4-(5-methyl-6-((tetrahydro-2H-pyran-4-yl)methyl)aminopyrazin-2-yl)pyridin-2-yl)cyclohexane-1,4-diamine] | 14.9 nM
N[C@H]1CC[C@H](Nc2cc(-c3nc(NCC4CCOCC4)cnc3Cl)ccn2)CC1 [Compound 232] | 7.95 nM
Cc1ncc(NCC2CCOCC2)nc1-c1cc(N[C@H]2CC[C@H](N)CC2)ncc1Cl [Compound 233, trans-N1-(5-chloro-4-(3-methyl-6-((tetrahydro-2H-pyran-4-yl)methyl)aminopyrazin-2-yl)pyridin-2-yl)cyclohexane-1,4-diamine] | 7.95 nM
CCc1ncc(-c2cc(N[C@H]3CC[C@H](N)CC3)ncc2Cl)nc1NCC1CCOCC1 [Compound 241, trans-N^1-(5-chloro-4-(5-ethyl-6-((tetrahydro-2H-pyran-4-yl)methyl)aminopyrazin-2-yl)pyridin-2-yl)cyclohexane-1,4-diamine] | 61.8 nM
OC[C@H]1CC[C@H](Nc2cc(-c3cncc(NCC4CCOCC4)n3)c(Cl)cn2)CC1 [Compound 242] | 15.4 nM
COCCN[C@H]1CC[C@H](Nc2cc(-c3cncc(NCC4CCOCC4)n3)c(Cl)cn2)CC1 [Compound 243, trans-N1-(5-chloro-4-(6-((tetrahydro-2H-pyran-4-yl)methyl)aminopyrazin-2-yl)pyridin-2-yl)-N4-(2-methoxyethyl)cyclohexane-1,4-diamine] | 7.95 nM
CC(=O)N[C@H]1CC[C@H](Nc2cc(-c3cncc(NCC4CCOCC4)n3)c(Cl)cn2)CC1 [Compound 244, N-(trans-4-(5-chloro-4-(6-((tetrahydro-2H-pyran-4-yl)methyl)aminopyrazin-2-yl)pyridin-2-yl-amino)cyclohexyl)acetamide] | 79 nM
CS(=O)(=O)N[C@H]1CC[C@H](Nc2cc(-c3cncc(NCC4CCOCC4)n3)c(Cl)cn2)CC1 [Compound 245] | 53.4 nM
NC[C@H]1CC[C@H](Nc2cc(-c3cncc(NCC4CCOCC4)n3)c(Cl)cn2)CC1 [Compound 246] | 11.5 nM
CC(=O)NC[C@H]1CC[C@H](Nc2cc(-c3cncc(NCC4CCOCC4)n3)c(Cl)cn2)CC1 [Compound 247] | 20.2 nM
CN(CC1CCOCC1)c1cncc(-c2cc(N[C@H]3CC[C@H](N)CC3)ncc2Cl)n1 [Compound 248] | 10.6 nM
CN(CC1CCOCC1)c1cncc(-c2cc(N[C@H]3CC[C@H](CN)CC3)ncc2Cl)n1 [Compound 249, 6-(2-(trans-4-(aminomethyl)cyclohexylamino)-5-chloropyridin-4-yl)-N-methyl-N-((tetrahydro-2H-pyran-4-yl)methyl)pyrazin-2-amine] | 31.8 nM
CN(CC1CCOCC1)c1cncc(-c2cc(N[C@H]3CC[C@H](O)CC3)ncc2Cl)n1 [Compound 250] | 28.4 nM
CN(CC1CCOCC1)c1cncc(-c2cc(N[C@H]3CC[C@H](CO)CC3)ncc2Cl)n1 [Compound 251] | 43.2 nM
COCCN[C@H]1CC[C@H](Nc2cc(-c3cncc(N(C)CC4CCOCC4)n3)c(Cl)cn2)CC1 [Compound 252] | 7.94 nM
N[C@H]1CC[C@H](Nc2cc(-c3nc(NCC4CCOCC4)ccc3Cl)c(Cl)cn2)CC1 [Compound 253, N2′-(trans-4-aminocyclohexyl)-3,5′-dichloro-N6-((tetrahydro-2H-pyran-4-yl)methyl)-2,4′-bipyridine-2′,6-diamine] | 7.94 nM
CS(=O)(=O)CCN[C@H]1CC[C@H](Nc2cc(-c3nc(NCC4CCOCC4)ccc3Cl)c(Cl)cn2)CC1 [Compound 254, 3,5′-dichloro-N2′-(trans-4-(2-(methylsulfonyl)ethylamino)cyclohexyl)-N6-((tetrahydro-2H-pyran-4-yl)methyl)-2,4′-bipyridine-2′,6-diamine] | 8.33 nM
N[C@H]1CC[C@H](Nc2cc(-c3nc(NCC4CCOCC4)cnc3C(F)(F)F)c(Cl)cn2)CC1 [Compound 255, trans-N1-(5-chloro-4-(6-((tetrahydro-2H-pyran-4-yl)methyl)amino-3-(trifluoromethyl)pyrazin-2-yl)pyridin-2-yl)cyclohexane-1,4-diamine] | 42.3 nM
COCCN[C@H]1CC[C@H](Nc2cc(-c3nc(NCC4CCOCC4)ccc3Cl)c(Cl)cn2)CC1 [Compound 258, 3,5′-dichloro-N2′-(trans-4-(2-methoxyethylamino)cyclohexyl)-N6-((tetrahydro-2H-pyran-4-yl)methyl)-2,4′-bipyridine-2′,6-diamine] | 7.94 nM
OCCN[C@H]1CC[C@H](Nc2cc(-c3nc(NCC4CCOCC4)ccc3Cl)c(Cl)cn2)CC1 [Compound 259, 2-(trans-4-(3,5′-dichloro-6-((tetrahydro-2H-pyran-4-yl)methyl)amino-2,4′-bipyridin-2′-yl-amino)cyclohexylamino)ethanol] | 7.94 nM
